# US20080317769A1, “Vaccine Composition Comprising Alpha-Galactosylceramide as an Adjuvant For Intranasal Administration” (priority 2005, published 2008)
# Entries after “also recorded” stand apart in the source; their conditions may differ.
# Experiments:
# live PR8 virus = assay: Plaque assay of live PR8 virus in the lung wash after 20 LD50 challenge; assay type: in vivo; details: Balb/c mice; 10 μg inactivated PR8 + αGalCer intranasal; three days after 20 LD50 live PR8
# Protocol: (§1) To examine the role of αGalCer as an adjuvant of a killed virus, influenza virus A/PR/8/34 (PR8), which was inactivated with formalin, was used as an antigen to examine the anti-virus immune response. Balb/c mice were immunized with indicated amounts (1 μg, 10 μg) of inactivated PR8 alone or together with αGalCer by the intranasal administration twice at two-week intervals. Two weeks after the final immunization, the mice were sacrificed and following experiments were performed.
# Immunized mice were infected with 20 LD50 of live PR8 virus and sacrificed three days later to obtain the lung wash. The amounts of live PR8 virus in the lung wash were measured by plaque assay. Particularly, MDCK cells (purchased from ATCC) were cultured in a 6 well plate at the density of 95-100%. The lung wash was 10-fold diluted by using a medium serially, which was added to the plate, followed by infection for one hour. Then, the lung wash was eliminated. An agarose containing medium was added thereto, followed by further culture in a CO2 incubator for 2-3 days. The numbers of plaques formed therein were counted with the naked eye.
# [1] = test system: OVA-specific antibody responses; assay: OVA-specific antibody responses after intranasal co-administration of OVA and αGalCer, Balb/c mice; assay type: in vivo
# Protocol: To investigate whether αGalCer can be used as a strong adjuvant for a nasal vaccine in Balb/c mice, different amounts of αGalCer (0.15, 0.5, 2.0 μg) and 100 μg of OVA were intranasally administered to Balb/c mice by the same manner as described in Example 1, followed by measurement of OVA-specific IgG, OVA-specific IgG1 and IgG2a in serum and OVA-specific IgA responses in the nasal wash and the lung wash.
# [2] = test system: IFN-γ and IL-4 production; assay: IFN-γ and IL-4 levels in spleen and CLN, Balb/c mice; assay type: in vivo
# Protocol: It was directly investigated whether α-GalCer nasal vaccine adjuvant skews immune response into Th1 or Th2 immune response. To measure the secretions of cytokines, cells were obtained from spleen and cervical lymph node (CLN) a week after the final immunization. The cells ([…]) were cultured with 500 μg/ml of OVA for 4 days. The secretions of IFN-γ and IL-4 in the culture supernatant were measured by using the mouse IFN-γ and IL-4 OptELA set ELISA kit (BD Pharmigen) according to the manufacturer's instruction.
# As described in Example 2, different amounts of αGalCer (0.125, 0.5, 2.0 μg) and OVA were intranasally administered to Balb/c mice (Charles River Laboratories, Oriet Co., Ltd., Korea), followed by measurement of the levels of IFN-γ and IL-4 in spleen and CLN.
# [3] = test system: OVA257-264 pulsed CFSE^high spleen cells; assay: In vivo CTL assay: specific lysis of OVA257-264 pulsed CFSE-high cells by FACS, C57BL/6 mice; details: all αGalCer dose groups + OVA intranasal, vs vehicle alone or OVA alone, dose-dependent
# Protocol: Spleen cells were separated from naive C57BL/6 mice, which were pulsed with 1 μM of OVA257-264 at 37° C. for 90 minutes. The pulsed cells were labeled with 20 μM of CFSE (Molecular Probes, USA) at 37° C. for 15 minutes, resulting in OVA257-264 pulsed CFSE^high cells. In the meantime, the unpulsed cells were labeled with 2 μM of CFSE (Molecular Probes, USA) at 37° C. for 15 minutes, resulting in the OVA257-264 unpulsed CFSE^low cells. The equal numbers of peptide-pulsed CFSE^high cells and unpulsed CFSE^low cells were mixed, which were intravenously injected to mice at the number of 2×10^7 cells one week after the final immunization. 24 hours later, specific lysis of peptide-pulsed CFSE^high cell was investigated by using FACS in spleen, mesenteric lymph node (MLN) and cervical lymph node (CLN).
# EG7 tumor cells = assay: EG7 tumor challenge after intranasal immunization with OVA and αGalCer; assay type: in vivo; details: C57BL/6 mice, 3×10^6 EG7 cells s.c., day 14
# Protocol: To confirm whether αGalCer could be used as a nasal vaccine adjuvant inducing anticancer activity, C57BL/6 mice were immunized with 100 μg of OVA alone or together with αGalCer (0.125, 0.5, 2.0 μg) by the intranasal administration three times at one-week intervals. Two weeks after the final immunization, 3×10^6 EG7 tumor cells were subcutaneously inoculated in the left flank of the immunized mice. On the 14th day of the inoculation, the mice were sacrificed and the palpable tumors were weighed.
# [4] = test system: OT1 cells (OVA specific CD8+ T cells); assay: CD25 surface expression of adoptively transferred CFSE-labeled OT1 cells in CLN (FACS); assay type: in vivo, mouse; details: 100 μg OVA + 2.0 μg αGalCer intranasal vs OVA alone; 48 hours later
# Protocol: To investigate the effect of αGalCer on the activation of T cells, the surface expression of CD25 in CFSE-labeled OT1 cells (OVA specific CD8+ T cells), which were adoptively transferred into syngenic mice, was measured. OT1 cells were separated from OT1 mouse by using CD8α (Ly-2) magnetic bead (Mitenyl Biotech), which were labeled with 10 μM of CFSE at 37° C. for 15 minutes and then transferred intravenously into a syngenic mouse. One day after the adoptive transfer, the intranasal administration of 100 μg of OVA alone or together with 2.0 μg of αGalCer was performed thereto. 48 hours later, the expression of CD25 in CLN was investigated with FACS.
# [5] = test system: P815 tumor cells infected with live PR8 virus; assay: 51Cr release assay for CTL activity against PR8-infected P815 target cells; assay type: in vivo; details: Balb/c mice; inactivated PR8 with or without αGalCer intranasal; splenocytes, 51Cr-labeled PR8-infected P815 targets, 6 hours
# Protocol: as §1
# Single cells, separated from the spleen of the sacrificed mice, were cultured with stimulator cells for 5 days. To obtain stimulator cells, single cells were taken from the spleen of a naïve Balb/c mouse, which was irradiated with γ-ray, resulting in the inactivation of the cells. Then, the inactivated cells were infected with a live PR8 virus. After culturing splenocytes with stimulator cell for five days, effector cells were three-fold diluted serially, followed by further culture with ^51Cr-labeled target cells for 6 hours. Then, the amounts of ^51Cr […] in the culture supernatant were measured. The target cells were prepared by infecting P815 tumor cells (purchased from ATCC) with live PR8 virus and labeled with ^51Cr.
# [6] = test system: immune cells from spleen and CLN; assay: Immune cell proliferation, [3H]-thymidine incorporation of spleen and CLN cells cultured with inactivated PR8; assay type: in vivo; details: Balb/c mice; inactivated PR8 + αGalCer intranasal; cells cultured with inactivated PR8 for 3 days, [3H]-thymidine 18 hrs
# Protocol: as §1
# Single cells separated from the spleen and CLN of the sacrificed mice were cultured with inactivated PR8 for 3 days and [^3H]-thymidine was added and further incubated for 18 hrs. As cells were being proliferated, the level of incorporated [^3H]-thymidine was measured by LSC.
# [7] = 0.5 μg of αGalCer intranasally coadministered with OVA
# [8] = αGalCer (0.15, 0.5, 2.0 μg) + 100 μg OVA intranasal, vs vehicle alone or OVA alone
compound,measurement,setting,value
"CCCCCCCCCCCCCCCCCCCCCCCCCC(=O)N[C@@H](CO[C@H]1O[C@H](CO)[C@H](O)[C@H](O)[C@H]1O)[C@H](O)[C@H](O)CCCCCCCCCCCCCC [αGalCer, alpha-galactosylceramide]",plaques of live PR8 virus in the lung wash,live PR8 virus,no plaque was observed
same,"IgG antibody level in serum, comparison of αGalCer doses",[1]; [7],highest level of IgG antibody
same,OVA-specific IgA responses in the nasal wash and the lung wash,[1]; [8],higher OVA-specific IgA responses
same,OVA-specific IgG response in serum,[1]; [8],higher OVA-specific IgG response
same,OVA-specific IgG1 and IgG2a titers,"[1]; αGalCer + OVA intranasal, serum",increases
same,"IL-4 level in spleen, comparison of αGalCer doses",[2]; [7],highest level of IL-4
same,production of IFN-γ and IL-4 in spleen and CLN,"[2]; all groups coimmunized with αGalCer (0.125, 0.5, 2.0 μg) and OVA",significant increase
same,"level of mucosal IgA in the lung wash and production of IL-4 in CLN, relation to the amount of αGalCer",[2]; αGalCer dose series + OVA intranasal,inverse proportion
same,"CTL cytotoxicity (specific lysis) in spleen, MLN and CLN",[3],dose-dependent lytic activity
same,"CTL cytotoxicity (specific lysis) in spleen, MLN and CLN",[3]; listed as α-GalCer,higher cytotoxicity
same,fraction of mice with tumor masses,EG7 tumor cells; 0.125 μg αGalCer + 100 μg OVA intranasal,⅓
same,tumor formation,EG7 tumor cells; 0.5 μg and 2.0 μg αGalCer together with OVA intranasal,completely inhibited
same,level of OT1 cells expressing CD25 in CLN,[4],higher
same,target cell-specific lytic activity,[5],observed only in mice concurrently treated with αGalCer; also recorded: strong lytic activity
same,proliferation of immune cells from spleen and CLN,[6],significantly increased
